What all share (type): cell-based
One assay concerns the target T1, RORγ (Homo sapiens, UniProt P51449).
T1 construct: uniprot ID P51449, aa 263-518; expressed in transfected cells; host or cells: HEK293T
T1 sequence (P51449 263-518): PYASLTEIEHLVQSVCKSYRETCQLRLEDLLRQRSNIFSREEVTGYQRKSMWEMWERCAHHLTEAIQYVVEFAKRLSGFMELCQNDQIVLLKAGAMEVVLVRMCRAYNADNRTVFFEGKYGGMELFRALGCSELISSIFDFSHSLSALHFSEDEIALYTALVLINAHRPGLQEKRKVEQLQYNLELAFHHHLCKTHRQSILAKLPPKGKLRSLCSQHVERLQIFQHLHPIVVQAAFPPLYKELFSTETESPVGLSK
Briefly: Gal4-RORγ hybrid reporter gene assay in HEK293T cells. To be noted: for IC50: Gal4 hybrid reporter gene assay, inverse agonism, mean±S.E.M., n≥4; for potency on RORγ compared to the related RORα and RORβ isoforms (subtype preference): Gal4 hybrid reporter gene assays. The source says: (§1) In vitro characterization of compounds 1, 2, and 3 in Gal4‐ROR hybrid reporter gene assays confirmed inverse RORγ agonism with micromolar to sub‐micromolar IC50 values (Table 1).
(§2) In vitro Characterization Methods
(§3) Hybrid reporter gene assays. The hybrid receptor plasmids pFA-CMV-hRORα-LBD (NR1F1, isoform 1, uniprot ID P35398-2, aa 266-523), pFA-CMV-hRORβ-LBD (NR1F2, isoform 2, uniprot ID Q92753-2, aa 216-470), and pFA-CMV-hRORγ-LBD (NR1F3, isoform 1, uniprot ID P51449, aa 263-518) encode the Gal4-DBD fused to the hinge region and ligand binding domain of the canonical isoform of the respective human nuclear receptor and were cloned as described previously[13,14] using cDNA from SourceBioScience (Nottingham, UK). The Gal4-responsive firefly luciferase reporter pFR-Luc (Stratagene, La Jolla, CA, USA) and pRL-SV40 (Promega, Madison, WI, USA; internal control) were used together with either pFA-CMV-NR-LBD clone for the hybrid reporter gene assays.
(§4) HEK293T cells (German Collection of Microorganisms and Cell Culture GmbH, DSMZ) were cultured in Dulbecco’s modified Eagle’s medium (DMEM), high glucose supplemented with 10 % fetal calf serum (FCS), sodium pyruvate (1 mM), penicillin (100 U/mL), and streptomycin (100 μg/mL) at 37 °C and 5 % CO2 and seeded in 96-well plates (3×10^4 cells/well) twenty-four hours prior to transfection. Before transfection, medium was changed to Opti -MEM without supplements and transient transfection with above mentioned plasmids (pFR-Luc, pRL-SV40 and one pFA-CMV-NR-LBD clone) was carried out with Lipofectamine LTX reagent (Invitrogen) according to the manufacturer’s protocol. Five hours after transfection, medium was changed to Opti -MEM supplemented with penicillin (100 U/mL) a nd streptomycin (100 μg/mL) additionally containing 0.1 % DMSO and the respective test compound or 0.1 % DMSO alone as untreated control. Each concentration was tested in duplicates and each experiment was repeated independently at least two times. Followi ng overnight (14−16 h) incubation, cells were assayed for luciferase activity using the Dual - Glo Luciferase Assay System (Promega) according to the manufacturer’s protocol. Luminescence was measured with a Tecan Spark luminometer (Tecan Deutschland GmbH, G ermany). Normalization of transfection efficiency and cell growth was done by division of firefly luciferase data by Renilla luciferase data and multiplying the value by 1000 resulting in relative light units (RLU). Fold reporter repression was obtained by dividing the mean RLU of a test compound at a respective concentration by the mean RLU of the 0.1% DMSO control. IC 50 values were obtained by plotting fold reporter activation vs test compound concentrations and fitting the resulting sigmoidal curve with a four-parameter logistic regression in SigmaPlot 12.5 (Systat Software GmbH, Erkrath, Germany). The Gal4 - ROR hybrid assays were validated with the reference inverse agonists SR1001 and SR1078 , which yielded IC50 values in agreement […]
(1 picture or pasted object on this page, not shown here)

The next assay concerns the target T2, RORβ (Homo sapiens, UniProt Q92753).
T2 construct: uniprot ID Q92753-2, aa 216-470; expressed in transfected cells; host or cells: HEK293T
T2 sequence (Q92753 216-470): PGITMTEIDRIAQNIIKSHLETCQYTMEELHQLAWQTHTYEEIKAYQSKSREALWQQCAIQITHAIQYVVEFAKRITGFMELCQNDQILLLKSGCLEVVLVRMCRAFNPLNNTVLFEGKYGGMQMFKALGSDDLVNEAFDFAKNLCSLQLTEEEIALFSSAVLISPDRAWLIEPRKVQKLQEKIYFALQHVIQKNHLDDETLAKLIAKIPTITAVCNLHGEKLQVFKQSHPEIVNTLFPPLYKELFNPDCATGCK
Briefly: Gal4-RORβ hybrid reporter gene assay in HEK293T cells. As to conditions: for IC50: Gal4 hybrid reporter gene assay, inverse agonism, mean±S.E.M., n≥4.
From the text: as §1, §2, §3
as §4, with “control.” for “control. IC 50 values were obtained by plotting fold reporter activation vs test compound concentrations and fitting the resulting sigmoidal curve with a four-parameter logistic regression in SigmaPlot 12.5 (Systat Software GmbH, Erkrath, Germany). The Gal4 - ROR hybrid assays were validated with the reference inverse agonists SR1001 and SR1078 , which yielded IC50 values in agreement”
(In general: A reporter such as luciferase makes a cellular process visible.)

The target in another assay is T3, RORα (Homo sapiens, UniProt P35398).
T3 construct: uniprot ID P35398-2, aa 266- 523; expressed in transfected cells; host or cells: HEK293T
T3 sequence (P35398 266-523): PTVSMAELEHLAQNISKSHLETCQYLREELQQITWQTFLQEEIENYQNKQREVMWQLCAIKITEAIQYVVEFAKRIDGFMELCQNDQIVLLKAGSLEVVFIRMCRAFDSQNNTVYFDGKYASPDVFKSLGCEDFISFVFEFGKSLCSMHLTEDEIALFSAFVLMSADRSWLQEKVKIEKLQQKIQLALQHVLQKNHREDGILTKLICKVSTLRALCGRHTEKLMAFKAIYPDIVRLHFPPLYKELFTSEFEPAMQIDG
Nature of the assay: Gal4-RORα hybrid reporter gene assay in HEK293T cells. To be noted: for IC50: Gal4 hybrid reporter gene assay, inverse agonism, mean±S.E.M., n≥4.
From the text: as §1, §2, §3
as §4, with “control.” for “control. IC 50 values were obtained by plotting fold reporter activation vs test compound concentrations and fitting the resulting sigmoidal curve with a four-parameter logistic regression in SigmaPlot 12.5 (Systat Software GmbH, Erkrath, Germany). The Gal4 - ROR hybrid assays were validated with the reference inverse agonists SR1001 and SR1078 , which yielded IC50 values in agreement”

Where [1] appears, read: precise IC50 could not be determined due to cytotoxicity.

`O=C1CC2(CCCC2)CC(=O)N1CCCCN1CCN(c2ccc(Cl)cc2)CC1` [Compound 1]: the IC50 at RORγ was 4.6 ± 0.5 µM; at RORβ it was more than 10 µM; against RORα, more than 10 µM. In addition, the “activity on RORβ (in words)” value on RORβ (setting [1]) is on record as “additionally active”. Further, the “activity on RORα (in words)” value at RORα (setting [1]) is “additionally active”.
Take `O=S(=O)(Cc1ccccc1)N(Cc1ccc(N2CCC(C(F)(F)F)CC2)cc1F)C1CCC1` [Compound 2]: the IC50 stood at 0.37 ± 0.05 µM on RORγ, 22 ± 1 µM on RORβ and 23 ± 3 µM against RORα. For the same compound, the “potency on RORγ compared to the related RORα and RORβ isoforms (subtype preference)” value on RORγ is “more than tenfold higher potency”.
On the same counts, the results for `O=S(=O)(Cc1ccccc1)N(Cc1ccc(N2CCC(C(F)(F)F)CC2)cc1)C1CCC1` [Compound 3] are 0.68 ± 0.07 µM, 7.6 ± 0.5 µM, 10 ± 1 µM and “more than tenfold higher potency”.

The term IC50 denotes the point on the concentration scale where inhibition reaches its midpoint. High values mean lower potency, low ones higher potency.

(Values after publication PMC8457062, “Beam Search for Automated Design and Scoring of Novel ROR Ligands with Machine Intelligence” (Angewandte Chemie (International Ed. in English), 2021).)
